# According to patent US7973069B2 (PTC Therapeutics, Inc., priority 2004, dated 2011):
# Values joined by “and” are separate entries in the source; they are usually repeats but may differ in a detail not shown here. Identical values can stand only once.
# Tested on: HCV replicon
# Format: cell-based
row,Compound,IC50
1,CCOC(=O)Nc1ccc(-c2c(C#N)c3ccc(OC(F)(F)F)cc3n2CC)cc1 [Compound 887],0.5 to 2 µM
2,CCOc1ccc2c(C#N)c(-c3ccc(NC(=O)OC4CCCC4)cc3)n(C(C)CC)c2c1 (stereo not drawn) [Compound 1222],0.5 to 2 µM
3,CCn1c(-c2ccc(NS(=O)(=O)C(C)C)cc2)c(C#N)c2ccc(OC(F)(F)F)cc21 [Compound 884],< 0.5 µM
4,CCn1c(-c2ccc(NC(=O)OCc3ccccc3)cc2)c(C#N)c2ccc(OCCF)cc21 [Compound 948],< 0.5 µM
5,CCCCn1c(-c2ccc(NC(=O)NCCC)cc2)c(C#N)c2ccc(OCC)cc21 [Compound 1066],0.5 to 2 µM
6,CCCOC(=O)Nc1ccc(-c2c(C#N)c3ccc(OCC)cc3n2CCC)cc1 [Compound 1055],0.5 to 2 µM and < 0.5 µM
7,CCOc1ccc2c(C#N)c(-c3ccc(NC(=O)OC4CCC4)cc3)n(C3CCC3)c2c1 [Compound 1167],< 0.5 µM
8,CCOc1ccc2c(C#N)c(-c3ccc(N(CC)CC)cc3)n(C3CC3)c2c1 [Compound 1310],0.5 to 2 µM
9,CC(OC(=O)Nc1ccc(-c2c(C#N)c3ccc(OCCn4ccnc4)cc3n2C2CCC2)cc1)C1CC1 (stereo not drawn) [Compound 1328],< 0.5 µM
10,CCOc1ccc2c(C#N)c(-c3ccc(NC(=O)NC4CCCC4)cc3)n(C3CCC3)c2c1 [Compound 1027],< 0.5 µM
11,CCn1c(-c2cccc(N3CCOC3=O)c2)c(C#N)c2ccc(OCCCN3CCOCC3)cc21 [Compound 1069],0.5 to 2 µM
12,CC1(COC(=O)Nc2ccc(-c3c(C#N)c4ccc(OCC5CCCO5)cc4n3C3CCC3)cc2)CC1 (stereo not drawn) [Compound 1284],< 0.5 µM
13,CC(C)OC(=O)Nc1ccc(-c2c(C#N)c3ccc(OCCN4CCOCC4)cc3n2C2CCC2)cc1 [Compound 1271],< 0.5 µM
14,CCOc1ccc2c(C#N)c(-c3ccc(NC(=O)OCCF)cc3)n(CC(C)C)c2c1 [Compound 1059],0.5 to 2 µM
15,CCCn1c(-c2ccc(NS(=O)(=O)C(C)C)cc2)c(C#N)c2cc(OC)ccc21 [Compound 997],0.5 to 2 µM
16,CCn1c(-c2ccc(NC(=O)C3CC3)cc2)c(C#N)c2ccc(OCCn3cncn3)cc21 [Compound 1093],0.5 to 2 µM
17,CCCOC(=O)Nc1ccc(-c2c(C#N)c3cc(OCc4ccccc4)ccc3n2CC)cc1 [Compound 926],0.5 to 2 µM
18,CC(C)S(=O)(=O)Nc1ccc(-c2c(C#N)c3ccc(OC(F)F)cc3n2CC2CC2)cc1 [Compound 941],< 0.5 µM
19,CCn1c(-c2ccc(N3CCOC3=O)cc2)c(C#N)c2ccc(OCCCCl)cc21 [Compound 1052],0.5 to 2 µM
20,CCOP(=O)(Nc1ccc(-c2c(C#N)c3ccc(OC)cc3n2CC)cc1)OCC [Compound 943],0.5 to 2 µM
21,CCn1c(-c2ccc(N(C)S(=O)(=O)CC)cc2)c(C#N)c2ccc(C(F)(F)F)cc21 [Compound 1005],0.5 to 2 µM
22,COc1ccc2c(C#N)c(-c3ccc(NS(=O)(=O)C(C)C)cc3)n(C3CCC3)c2c1 [Compound 1103],0.5 to 2 µM
23,CCn1c(-c2ccc(NC(=O)OCCF)cc2)c(C#N)c2ccc(OC(F)(F)F)cc21 [Compound 888],0.5 to 2 µM
24,CC(C)COC(=O)Nc1ccc(-c2c(C#N)c3ccc(OC(F)F)cc3n2CC2CC2)cc1 [Compound 1071],0.5 to 2 µM and > 2 µM
25,CCn1c(-c2ccc(NC(=O)NC)cc2)c(C#N)c2ccc(OCCCN3CCOCC3)cc21 [Compound 1118],0.5 to 2 µM
26,CCCCn1c(-c2cccc(NC(=O)OCCC)c2)c(C#N)c2ccc(OCC)cc21 [Compound 1021],< 0.5 µM

row,Compound,IC50
1,CCOc1ccc2c(c1)c(C#N)c(-c1ccc(NC(=O)NC(C)C)cc1)n2C1CCC1 [Compound 1223],< 0.5 µM
2,CC(C)n1c(-c2ccc(NC(=O)O[C@H](C)C3CC3)cc2)c(C#N)c2ccc(Oc3ncccn3)cc21 [Compound 2208],< 0.5 µM
3,COc1ccc2c(C#N)c(-c3ccc(NC(=O)NC(C)C)cc3)n(C3CCC3)c2c1 [Compound 1082],0.5 to 2 µM
4,CCOc1ccc2c(C#N)c(-c3ccc(NC(=O)NC4CC4)cc3)n(C3CCC3)c2c1 [Compound 1191],0.5 to 2 µM
5,CCOc1ccc2c(C#N)c(-c3ccc(NC(=O)OCc4ccccc4)cc3)n(CC3CC3)c2c1 [Compound 1153],< 0.5 µM
6,CCOc1ccc2c(c1)c(C#N)c(-c1ccc(NC(=O)OC(C)C3CC3)cc1)n2C1CCC1 (stereo not drawn) [Compound 1295],< 0.5 µM
7,CCOc1ccc2c(C#N)c(-c3ccc(NC(=O)OC4CCCC4)cc3)n(C3CCCC3)c2c1 [Compound 1211],< 0.5 µM
8,COc1ccc2c(C#N)c(-c3ccc(N4CCCS4(=O)=O)cc3)n(C3CCC3)c2c1 [Compound 1104],0.5 to 2 µM
9,CCCOc1ccc2c(C#N)c(-c3ccc(NC(=O)OC(C)C)cc3)n(C(C)C)c2c1 [Compound 1204],< 0.5 µM
10,[4-(3-cyano-1-cyclobutyl-6-cyclopropyl-1H-indol-2-yl)-phenyl]-carbamic acid tert-butyl ester [Compound 2513],0.5 to 2 µM
11,COCCN(C)CCOc1ccc2c(C#N)c(-c3ccc(NC(=O)NC(C)C)cc3)n(C3CCC3)c2c1 [Compound 1321],0.5 to 2 µM
12,CCNc1ccc(-c2c(C#N)c3ccc(OCC)cc3n2C2CC2)cc1 [Compound 1311],< 0.5 µM
13,CCN(c1ccc(-c2c(C#N)c3ccc(C(F)(F)F)cc3n2CC)cc1)S(C)(=O)=O [Compound 1003],0.5 to 2 µM
14,COc1ccc2c(c1)c(C#N)c(-c1ccc(NC(=O)NC3CCCC3)cc1)n2C1CCC1 [Compound 1165],0.5 to 2 µM
15,CCCNC(=O)Nc1ccc(-c2c(C#N)c3ccc(OCC)cc3n2CC(C)C)cc1 [Compound 1061],0.5 to 2 µM
16,CCn1c(-c2ccc(NS(=O)(=O)C3CC3)cc2)c(C#N)c2cc3c(cc21)OCO3 [Compound 1038],0.5 to 2 µM
17,C[C@@H](OC(=O)Nc1ccc(-c2c(C#N)c3ccc(OCCF)cc3n2C2CCC2)cc1)C1CC1 [Compound 2326],< 0.5 µM
18,CCCOc1ccc2c(C#N)c(-c3ccc(NC(=O)OC(C)C4CC4)cc3)n(C(C)C)c2c1 (stereo not drawn) [Compound 1244],< 0.5 µM
19,CC(C)NC(=O)Nc1ccc(-c2c(C#N)c3ccc(OCCn4ccnc4)cc3n2C2CCC2)cc1 [Compound 1322],< 0.5 µM
20,CCOC(=O)Nc1ccc(-c2c(C#N)c3ccc(OCC)cc3n2C2CCCC2)cc1 [Compound 1127],< 0.5 µM
21,CCn1c(-c2cccc(N3CCNC3=O)c2)c(C#N)c2ccc(OCCCN3CCOCC3)cc21 [Compound 1068],0.5 to 2 µM
22,CCCCOC(=O)Nc1ccc(-c2c(C#N)c3cc(OCC)ccc3n2C2CCC2)cc1 [Compound 1198],< 0.5 µM
23,COCCn1c(-c2ccc(N3CCCS3(=O)=O)cc2)c(C#N)c2ccc(OC(F)(F)F)cc21 [Compound 906],0.5 to 2 µM
24,CCCOc1ccc2c(C#N)c(-c3ccc(NC(=O)NC4CCC4)cc3)n(C(C)C)c2c1 [Compound 1326],0.5 to 2 µM
25,CCn1c(-c2ccc(NS(=O)(=O)CC)cc2)c(C#N)c2ccc(C(=O)OC)cc21 [Compound 968],< 0.5 µM and 0.5 to 2 µM
26,CCOc1ccc2c(C#N)c(-c3ccc(N4CCCS4(=O)=O)cc3)n(C3CCC3)c2c1 [Compound 980],> 2 µM

row,Compound,IC50
1,C=CCOC(=O)Nc1ccc(-c2c(C#N)c3cc(OC)c(OC)cc3n2CC)cc1 [Compound 1111],0.5 to 2 µM
2,CCNC(=O)Nc1ccc(-c2c(C#N)c3ccc(OCC)cc3n2C2CCCC2)cc1 [Compound 1143],< 0.5 µM
3,CCCn1c(-c2ccc(NS(=O)(=O)C3CC3)cc2)c(C#N)c2ccc(OCc3ccccc3)cc21 [Compound 924],0.5 to 2 µM
4,CCOc1ccc2c(C#N)c(-c3ccc(NC(=O)C4CCC4)cc3)n(CC)c2c1 [Compound 899],0.5 to 2 µM
5,CCOc1ccc2c(c1)c(C#N)c(-c1ccc(NC(=O)OC3CCCC3)cc1)n2C1CCC1 [Compound 1199],< 0.5 µM
6,CCCOC(=O)Nc1ccc(-c2c(C#N)c3ccc(OCC)cc3n2C2CCC2)cc1 [Compound 972],< 0.5 µM
7,CCOc1ccc2c(c1)c(C#N)c(-c1ccc(NC(=O)NC(C)C)cc1)n2C1CCC1 [Compound 1224],0.5 to 2 µM
8,CC(C)OC(=O)Nc1ccc(-c2c(C#N)c3ccc(OCCN4CCSCC4)cc3n2C2CCC2)cc1 [Compound 1273],0.5 to 2 µM
9,CCOc1ccc2c(C#N)c(-c3ccc(NC(=O)OC(C)C)cc3)n(C(C)C)c2c1 [Compound 1058],< 0.5 µM
10,CCOc1ccc2c(C#N)c(-c3cccc(N4CCCS4(=O)=O)c3)n(CC)c2c1 [Compound 907],0.5 to 2 µM
11,C=CCNC(=O)Nc1ccc(-c2c(C#N)c3ccc(OC(F)F)cc3n2CC)cc1 [Compound 1139],0.5 to 2 µM
12,CCNC(=O)Nc1ccc(-c2c(C#N)c3ccc(OC)cc3n2CC)cc1C [Compound 966],0.5 to 2 µM
13,CCCOc1ccc2c(C#N)c(-c3ccc(NC(=O)OC(C)CC)cc3)n(C(C)C)c2c1 (stereo not drawn) [Compound 1246],< 0.5 µM
14,CCCS(=O)(=O)Nc1ccc(-c2c(C#N)c3ccc(OC)cc3n2CC)cc1C [Compound 961],0.5 to 2 µM
15,CCCS(=O)(=O)Nc1ccc(-c2c(C#N)c3ccc(OC(F)(F)F)cc3n2CC)cc1 [Compound 882],< 0.5 µM
16,CCN(c1ccc(-c2c(C#N)c3ccc(C(F)(F)F)cc3n2CC)cc1)S(=O)(=O)CC [Compound 1006],< 0.5 µM and 0.5 to 2 µM
17,CCN(C)CCOc1ccc2c(C#N)c(-c3ccc(NC(=O)OC(C)C)cc3)n(C3CCC3)c2c1 [Compound 1270],< 0.5 µM
18,N#Cc1c(-c2ccc(NC(=O)OCC3CCC3)cc2)n(C2CCC2)c2cc(OCCCCN3CCCC3)ccc12 [Compound 1257],< 0.5 µM
19,CC(C)OC(=O)Nc1ccc(-c2c(C#N)c3ccc(OCCCN4CCN(C)CC4)cc3n2C2CCC2)cc1 [Compound 1261],< 0.5 µM
20,COc1ccc2c(c1)c(C#N)c(-c1ccc(NC(=O)OCC(C)(C)C)cc1)n2C1CCC1 [Compound 1233],< 0.5 µM
21,CCOc1ccc2c(C#N)c(-c3ccc(NC(=O)OC4(C)CCCC4)cc3)n(C3CCC3)c2c1 [Compound 1209],< 0.5 µM
22,CCn1c(-c2ccc(NC(=O)OC(C)C)cc2)c(C#N)c2ccc(OCCF)cc21 [Compound 946],< 0.5 µM
23,CCn1c(-c2ccc(NC(C)=O)cc2)c(C#N)c2ccc(OC(F)(F)F)cc21 [Compound 913],0.5 to 2 µM
24,CCn1c(-c2ccc(N3CCCS3(=O)=O)cc2)c(C#N)c2ccc(Oc3cnccn3)cc21 [Compound 1053],0.5 to 2 µM
25,CCCNC(=O)Nc1ccc(-c2c(C#N)c3ccc(OCc4cccnc4)cc3n2CC)cc1 [Compound 1185],< 0.5 µM
26,CCCCNC(=O)Nc1cccc(-c2c(C#N)c3ccc(OCC)cc3n2CCCC)c1 [Compound 1023],0.5 to 2 µM
